Experiments:
Format in all cases: physicochemical
[1] = Preliminary rheology, shear elastic modulus G′ of modular HA hydrogel with catechol amine; conditions: catechol amine bound to thiolated HA/gelatin hydrogel via thiol-alkyne, FIG. 1
Description: (§1) These increases were not observed in control groups. This gives validation to the activity of the newly added catechol components of the system. […] Following this observation we employed the rheometer using a customized protocol to apply a tensile stretch to hydrogels that had immobilized between the base and testing geometry of the rheometry. The geometry was brought into contact with the sample and lowered until 0.4 N normal force was reached by the load cell. At this point, the sample was allowed to equilibrate for 30 seconds, after which the rheometer applied constant displacement vertically at 5 um/s, raising the geometry 1000 um, during which time resistive force (“stickiness”) was measured by the load cell every second.
Mechanical bulk properties. Hydrogels will be formed in custom molded 12 mm dishes and assessed by rheology to determine bulk material shear elastic modulus. […]

[2] = Preliminary rheometer tensile stretch (stickiness) test of catechol amine hydrogel
Description: as §1

[3] = Oscillatory shear-stress sweep test, shear elastic modulus G′ of HyStem hydrogels
Method: To a 2 mL centrifuge tube, 200 μL of Heprasil® solution (1% w/v solution, thiolated HA component of HyStem kit), 200 μL of Gelin-S® solution (1% w/v, thiolated gelatin component of HyStem kit), 50 μL of Extralink® solution (2% w/v, polyethylene glycol diacrylate component of HyStem kit), and 50 μL of a modular catecholamine (C1.1) or amide […] solutions (0.25%-1.5% w/v, see Rheology section for specifics) were added and mixed by softly pipetting the solution up and down carefully to avoid creating bubbles. For control experiments the modular catecholamide or amine solutions were replaced with an equivalent volume of sterile deionized water. For rheology or cell culture studies, the reaction mixture was placed into wells of an appropriate size and exposed to UV radiation (˜222 nm) for 1-5 seconds.
A Discovery HR-2 Rheometer (TA Instruments, New Castle, Del.) with an 8 mm geometry was used to collect the rheological data. After reaction set-up, 200 μL of the reaction mixture was transferred into a 12 mm diameter×5 mm depth PDMS well. The PDMS well containing the reaction mixture was then exposed to UV radiation for 5 seconds at a distance of 1 cm. Photo-initiated polymerization and formation of a hydrogel occurred instantaneously. To ensure standard conditions across all experiments the geometry was lowered into the gels until a calibration normal force of 0.4N was achieved. Following, an oscillatory shear-stress sweep test (0.6-10.0 Pa, 1.0 Hz, 25° C.) was applied to hydrogels containing varying concentrations (0%, 1.0%, and 1.5% w/v) of modular amine compounds, C1.1 and C1.2. This experiment was repeated in triplicate for each condition. Average shear elastic modulus, G′, values were determined for each condition.
Shear-stress sweep tests (0.6-10.0 Pa, 1.0 Hz, 25° C.) were applied to hydrogels containing varying solution concentrations (0%, 1.0%, and 1.5% WAV) of modular amine compounds, C1.1/C1.2. Reported here are the average shear elastic modulus G′ values for n=3 runs for each condition (FIGS. 3 and 4). The reported uncertainties were calculated from standard deviations between n=3 averaged G′ values of each condition. In FIG. 3 we report the following G′ values: (2.136×10^3+/−3.988×10^2) Pa for the HyStem® control, (3.166×103+/−6.772×10^2) Pa for the HyStem®+1% w/v catecholamine, and (3.648×103+/8.047×102) Pa for the HyStem®+1.5% w/v catecholamine. […] Thus it was observed that when increasing the % w/v of the catecholamine (C1.1) solution used from 0% w/v, 1% w/v, 1.5% w/v, a proportional increase in G′ was observed, i.e., 1 equivalent of C1.1=1000 Pa increase in G′ and 1.5 equivalent=1500 Pa increase in the G′ of the hydrogel matrix.

Row | Compound | G′ values of the hydrogel constructs (change) [1] | increase in tensile resistance ([2]; catechol amine containing hydrogel, 5 um/s, 1000 um, FIG. 2, preliminary) | stickiness of hydrogel constructs during mechanical shear testing ([2]; qualitative) | increase in G′ vs HyStem control ([3]; 1.0% w/v compound solution) | increase in G′ over gels containing 1.0% w/v C1.1 ([3]; 1.5% w/v C1.1 solution) | increase in G′ vs HyStem control ([3]; 1.5% w/v compound solution) | higher increase in G′ over gels containing 1.0% w/v C1.1 solution ([3]; 1.0% w/v C1.2 solution) | shear elastic modulus G′ ([3]; Hystem + 1.0% w/v compound solution, n=3)
1 | C#CCNCc1ccc(O)c(O)c1 [Compound C1.1] | further increased the G′ values | 3 fold | significantly more “stickiness” | ~1.029×10^3+/−3.280×10^1 Pa | 477 pa | 1.512×10^3+/−3.469×10^1 Pa |  | 
2 | C#CCNC(=O)Cc1ccc(O)c(O)c1 [Compound C1.2] |  |  |  | ~1.817×10^3+/−2.457×10^1 Pa |  | 1.989×10^3+/−1.378×10^1 Pa | 788 Pa | 3.953×10^3+/−1.160×10^2 Pa

— US11286231B2, “Hydrogen-bonding compounds, compositions comprising the same, and methods of preparing and using the same” (Wake Forest University Health Sciences, priority 2016, dated 2022)
